Experimental data: patent US20040248963A1, “Prodrugs of excitatory amino acids” (priority 2001, published 2004)

| SMILES | melting point |
| --- | --- |
| Cl.N[C@@]1(C(=O)O)CC[C@H]2[C@H](C(=O)OCOC(=O)c3ccccc3)[C@H]21 | 230 °C (dec.) |
| Cl.N[C@@]1(C(=O)OCOC(=O)c2cccc3ccccc23)CC[C@H]2[C@H](C(=O)O)[C@H]21 [Example 17, (1S,2S,5R,6S)-2-amino-bicyclo[3.1.0]hexane-2,6-dicarboxylic acid 2-(naphthalene-1′-carbonyloxymethyl) ester hydrochloride] | 212 to 213 °C |
| CC(C)C(=O)OCOC(=O)[C@H]1[C@@H]2CC[C@@](N)(C(=O)OCOC(=O)C(C)C)[C@@H]21.Cl | 224 to 226 °C |
| Cl.N[C@@]1(C(=O)OCOC(=O)c2cccc3ccccc23)CC[C@H]2[C@H](C(=O)OCOC(=O)c3cccc4ccccc34)[C@H]21 | 92 to 94 °C |
| Cc1oc(=O)oc1COC(=O)[C@H]1[C@@H]2CC[C@@](N)(C(=O)O)[C@@H]21 [Example 26, (1S,2S,5R,6S)-2-amino-bicyclo[3.1.0]hexane-2,6-dicarboxylic acid 6-(5′-methyl-2′-oxo-[1′,3′]dioxolen-4′-yl)methyl ester] | 180 °C (dec.) |
| Cl.N[C@@]1(C(=O)OCOC(=O)c2ccc3ccccc3c2)CC[C@H]2[C@H](C(=O)OCOC(=O)c3ccc4ccccc4c3)[C@H]21 | 125 to 127 °C |
| CC(C)(C)C(=O)OCOC(=O)[C@H]1[C@@H]2CC[C@@](N)(C(=O)O)[C@@H]21 [Example 21, (1S,2S,5R,6S)-2-Amino-bicyclo[3.1.0]hexane-2,6-dicarboxylic acid 6-tert-butylcarbonyloxymethyl ester] | 205 to 206 °C |
| Cl.N[C@@]1(C(=O)OCOC(=O)c2ccc3ccccc3c2)CC[C@H]2[C@H](C(=O)O)[C@H]21 | 184 to 185 °C |
| CC(C)OC(=O)OCOC(=O)[C@H]1[C@@H]2CC[C@@](N)(C(=O)OCOC(=O)OC(C)C)[C@@H]21.Cl | 52 °C |
| Cl.N[C@@]1(C(=O)OCOC(=O)c2ccccc2)CC[C@H]2[C@H](C(=O)OCOC(=O)c3ccccc3)[C@H]21 [Example 43, (1S,2S,5R,6S)-2-Amino-bicyclo[3.1.0]hexane-2,6-dicarboxylic acid, 2,6-dibenzoyloxymethyl ester hydrochloride] | 73 °C |
| CC(C)OC(=O)OCOC(=O)[C@]1(N)CC[C@H]2[C@H](C(=O)O)[C@H]21.Cl [Example 14, (1S,2S,5R,6S)-2-Amino-bicyclo[3.1.0]hexane-2,6-dicarboxylic acid 2-isopropyloxycarbonyloxymethyl ester hydrochloride] | 59 to 60 °C |
| COC(=O)OCOC(=O)[C@H]1[C@@H]2CC[C@@](N)(C(=O)O)[C@@H]21 [Example 25, (1S,2S,5R,6S)-2-amino-bicyclo[3.1.0]hexane-2,6-dicarboxylic acid 6-methoxycarbonyloxymethyl ester] | 214 to 215 °C |
| CC(C)OC(=O)OCOC(=O)[C@H]1[C@@H]2CC[C@@](N)(C(=O)O)[C@@H]21 [Example 23, (1S,2S,5R,6S)-2-Amino-bicyclo[3.1.0]hexane-2,6-dicarboxylic acid 6-isopropyloxycarbonyloxymethyl ester] | 196 to 197 °C |
| CC(C)(C)C(=O)OCOC(=O)[C@H]1[C@@H]2CC[C@@](N)(C(=O)O)[C@@H]21.Cl | 258 °C (dec.) |
| CCCC(=O)OCOC(=O)[C@H]1[C@@H]2CC[C@@](N)(C(=O)O)[C@@H]21 [Example 24, (1S,2S,5R,6S)-2-amino-bicyclo[3.1.0]hexane-2,6-dicarboxylic acid 6-n-butyryloxymethyl ester] | 199 to 200 °C |
